Where no end group is shown, it is not given here.

This test deals with U251MG human glioma cell attachment to TrpR-TN5 (E. coli Trp aporepressor hybrid with SRRGDMS at D/E transition). As to the kind of experiment: Cell attachment assay on TrpR-TN5-coated wells, peptide competition. The class given is cell-based. The settings on record: peptide at 1 mg/ml; U251 cells. The procedure:
Recombinant proteins were assessed for cell binding activity in a microtiter plate cell attachment assay. The assay is a simple and rapid means of assessing cell binding to the recombinant protein. In addition the specificity of the interaction is explored with specific inhibitor peptides, recombinant proteins and matrix proteins. Finally, the assay is used to screen a variety of cell lines to determine the range of cell types capable of interacting with the recombinant protein.
The assay used was a modification of one widely used in the field. See Bourdon et al., J. Cell Biol., 108:1149-1155 (1989). […] Nonspecific sites on the well were blocked with BSA. Human tumor cells, U251MG-human glioma or MG63-human sarcoma having the receptor which binds the SRRGDMS receptor binding site with or without inhibitor were added and allowed to adhere for 30 to 90 minutes at 37° C. Following the maintenance period, non-adherent cells were washed out and relative numbers of adherent cells were determined. The assay can detect binding interactions in the absence of extensive cell spreading.
In the cell attachment assay, the attached cells stained with Di-I a vital fluorescent dye which intercalates in cell membranes. The advantages of this form of cell tagging are that cells can be rapidly labeled, the label remains cell bound, it is not radioactive, and it is easily detected in a fluorescence plate reader.
Specificity of cell attachment was then determined in competition assays of cell attachment using SRRGDMS or GRGDSP peptides as competitive inhibitors of recombinant protein cell attachment. In the presence of 1 mg/ml SRRGDMS peptide, the specific attachment of U251MG cells to either fusion protein was inhibited as shown in FIG. 3.
For MGSRSRD, the “inhibition of cell attachment to TrpR-TN5” value (from here on “inhibition”) is “did not inhibit”.
For the substance SRRGDMS (SRRGDMS-NH2), the “inhibition” value was “inhibited”.
As to GRGDSP (GRGDSP-NH2), the “inhibition” value is on record as “inhibited”.

These data come from patent US5190873A, “Hybrid tryptophan aporepressor containing ligand binding sites” (California Institute of Biological Research, priority 1991, dated 1993).
